# Test results from article PMC10298530, “Synthesis and Anticancer Activity of A-Ring-Modified Derivatives of Dihydrobetulin” (International Journal of Molecular Sciences, 2023).
# Values joined by “and” are separate entries in the source; they are usually repeats but may differ in a detail not shown here. Equal entries are not always repeated. Where two headings read alike, the source gives them in different places.
# How the values were obtained:
# HBL-100/Dox cells [1] = assay: Combined action of compounds, MTT assay on HBL-100/Dox cells; assay type: cell-based, human; details: 72 h, with 30 μM verapamil
# Description: The results were expressed pictorially using Prism 6.0 (GraphPad Software, Boston, MA, USA).
# MCF-7 = assay: MTT cell viability assay, MCF-7; assay type: cell-based, human; details: Homo sapiens, MCF7
# Description: (§1) Blokhin National Medical Research Center of Oncology (the Ministry of Health of the Russian Federation, Moscow).
# MS = assay: MTT cell viability assay, MS; assay type: cell-based, human; details: Homo sapiens;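 for IC50 (mean ± SD): MS is a melanocyte cell line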
# Description: as §1
# HBL-100/Dox cells [2] = assay: Annexin V-FITC/PI assay, HBL-100/Dox; assay type: cell-based, human; details: 16 h, dose IC50
# Description: (§2) Briefly, after exposing the cells to the tested and control compounds for 16 h, the cells were detached with accutase (HiMedia Laboratories, Maharashtra, India) and washed with cold PBS. Then, the cells were re-suspended in 100 μL of 1 × Binding Buffer at concentration 1 × 10^6 cells/mL and incubated with 5 μL Annexin V-FITC and 5 μL propidium iodide (PI) for 15 min at room temperature in darkness. After incubation, 400 μL of 1 × Binding Buffer was added to each tube. The samples were analyzed by flow cytometry (CytoFlex S, Beckman Coulter, Brea, CA, USA) within 1 h of staining, and the findings were analyzed using a trial version of the Kaluza software (Beckman Coulter, Brea, CA, USA).
# HEpG2 = assay: MTT cell viability assay, HEpG2; assay type: cell-based, human; details: Homo sapiens
# Description: as §1
# HBL-100 cells [3] = assay: Hoechst 33342 / TMRE fluorescent microscopy, HBL-100; assay type: cell-based, human; details: Hoechst 33342, 16 h, IC50 values (MK 1.0 µM)
# Description: (§3) The DNA marker, termed Hoechst 33342 Ready Flow Reagent, was used as a stock solution (Invitrogen, ThermoFisher Scientific, USA). The mitochondrial marker, LumiTracker Mito TMRE (tetramethylrhodamine, ethyl ester; Lumiprobe, Moscow, Russia), was dissolved in DMSO as 1.0 mM stock solution. The marker of reactive oxygen species, H2DCFDA (Lumiprobe, Moscow, Russia), was dissolved in DMSO as 100.0 μM stock solution. After incubation, the cells were incubated with FBS-free culture medium containing the dye mixture of Hoechst 33342 (final concentration 1.0 μM) and LumiTracker Mito TMRE (final concentration 1.0 μM), or H2DCFDA dye taken alone (final concentration 1.0 μM), for 30 min at 37 °C in darkness. Fluorescence, at 420 nm (Hoechst 33342), at 510 nm (TMRE), and at 575 nm (H2DCFDA), of the test cultures (including controls) was analyzed immediately using a fluorescence microscope CKX 53 (Olympus, Tokyo, Japan). The TMRE fluorescence intensity was quantified using Fiji (ImageJ).
# HBL-100 cells [4] = assay: Cell cycle analysis (DAPI, flow cytometry), HBL-100; assay type: cell-based, human; details: for Cell cycle of HBL-100, S-phase: dose = IC50
# Description: (§4) The cells were trypsinized and rinsed with the growth medium. Then, the cells were harvested by centrifugation at 500× g for 3 min, and the supernatant was discarded. The cells were washed with PBS (PanEco, Moscow, Russia) twice and centrifuged under similar conditions. The cells were resuspended in 500 μL of PBS, put into centrifuge tubes and fixed by adding 4.5 mL of 70% ethanol dropwise (on ice). The samples were fixed at 4 °C. Overnight, the fixed cells were centrifugally collected (1000× g, 4 °C, 5 min) and washed again with PBS. The cells were finally resuspended in DAPI with 0.1% Triton X-100 in PBS solution (10 μg/mL, Sigma–Aldrich, St. Louis, MO, USA), and stained for 30 min at room temperature in darkness. For each sample, at least 50,000 cells were analyzed using the CytoFlex S flow cytometer (Beckman Coulter, Brea, CA, USA). Cell cycle populations were quantified from DNA histograms with the FlowJo software (ver. X 10.0.7r2, FlowJo Software, San Jose, CA, USA).
# HCT116 = assay: MTT cell viability assay, HCT116; assay type: cell-based, human; details: Homo sapiens, HCT-116; HCT116, MTT, 72 h of treatment; read-out: IC50 Values (Mean ± SD)
# Description: as §1
# HEK293 = assay: MTT cell viability assay, HEK293; assay type: cell-based; details: Homo sapiens
# Description: as §1
# HBL-100/Dox = assay: MTT cell viability assay, HBL-100/Dox; assay type: cell-based, human; details: Homo sapiens
# Description: (§5) The cells were cultured in a humidified CO2 incubator (model 460-CE; Thermo Fisher Scientific, Waltham, MA, USA) at +37 °C and 5% CO2.
# (§6) The percentage of the viable cells was calculated according to the following equation: cell viability (%) = 100 × (mean absorbance in the treatment group/mean absorbance in the control group). The results were expressed pictorially using Prism 6.0 (GraphPad Software, Boston, MA, USA).
# HBL-100/Dox cells [5] = assay: Cell cycle analysis (DAPI, flow cytometry), HBL-100/Dox; assay type: cell-based, human; details: HBL-100/Dox (resistant) cells, 12-24 h, IC50
# Description: as §4
# HBL-100 cells [6] = assay: Annexin V-FITC/PI assay, HBL-100; assay type: cell-based, human; details: 16 h, dose IC50
# Description: as §2
# HBL-100/Dox cells [7] = assay: Hoechst 33342 / TMRE fluorescent microscopy, HBL-100/Dox; assay type: cell-based, human; details: Hoechst 33342, 16 h, IC50 values (MK 1.8 µM)
# Description: as §3
# RD TE32 = assay: MTT cell viability assay, RD TE32; assay type: cell-based, human; details: Homo sapiens
# Description: as §1
# PC-3 = assay: MTT cell viability assay, PC-3; assay type: cell-based, human; details: Homo sapiens; PC-3, MTT, 72 h of treatment; read-out: IC50 Values (Mean ± SD)
# Description: as §1
# HBL-100 = assay: MTT cell viability assay, HBL-100; assay type: cell-based, human; details: Homo sapiens
# Description: as §5, §6
smiles,measurement,setting,value
"COc1cccc2c1C(=O)c1c(O)c3c(c(O)c1C2=O)C[C@@](O)(C(=O)CO)C[C@@H]3O[C@H]1C[C@H](N)[C@H](O)[C@H](C)O1 [Dox, doxorubicin, reference compound]",diminution of IC50 value of Dox in combination with verapamil,HBL-100/Dox cells [1],37 fold
same,IC50,"MCF-7; MCF-7, MTT, 72 h of treatment, read-out: IC50 Values (Mean ± SD)",400 ± 100 nM
same,IC50,"MCF-7; Table S1, MCF-7, read-out: IC50 (mean ± SD)",380 ± 90 nM
same,IC50,"MS; MS, MTT, 72 h of treatment, read-out: IC50 Values (Mean ± SD)",1300 ± 200 nM
same,IC50,"MS; Table S1, MS, read-out: IC50 (mean ± SD)",1290 ± 160 nM
same,Dead cells,HBL-100/Dox cells [2],0.84±0.24%
same,Early apoptotic cells,HBL-100/Dox cells [2],2.56 ± 0.36% and 2.56±0.37%
same,Late apoptotic cells,HBL-100/Dox cells [2],0.82±0.55%
same,Viable cells,HBL-100/Dox cells [2],95.74±1.10%
same,IC50,"HEpG2; HEpG2, MTT, 72 h of treatment, read-out: IC50 Values (Mean ± SD)",1800 ± 300 nM
same,IC50,"HEpG2; Table S1, HEpG2, read-out: IC50 (mean ± SD)",1780 ± 300 nM
same,number of cells with nuclear morphology changes,HBL-100 cells [3],25.2%
same,"Cell cycle of HBL-100, S-phase",HBL-100 cells [4]; 12 h,48.19±0.09%
same,"Cell cycle of HBL-100, S-phase",HBL-100 cells [4]; 13 h,46.86±0.22%
same,"Cell cycle of HBL-100, S-phase",HBL-100 cells [4]; 14 h,48.25±0.51%
same,"Cell cycle of HBL-100, S-phase",HBL-100 cells [4]; 15 h,57.27±0.14%
same,"Cell cycle of HBL-100, S-phase",HBL-100 cells [4]; 16 h,61.28±2.01%
same,"Cell cycle of HBL-100, S-phase",HBL-100 cells [4]; 17 h,56.17±1.64%
same,"Cell cycle of HBL-100, S-phase",HBL-100 cells [4]; 18 h,55.42±0.92%
same,"Cell cycle of HBL-100, S-phase",HBL-100 cells [4]; 24 h,76.69±0.75%
same,effect on cell cycle progression,"HBL-100 cells [4]; HBL-100 (parental) cells, 12-24 h, IC50",induced the S phase arrest
same,IC50,HCT116,1300 ± 300 nM
same,IC50,"HEK293; HEK293, MTT, 72 h of treatment, read-out: IC50 Values (Mean ± SD)",400 ± 100 nM
same,IC50,"HEK293; Table S1, HEK293, read-out: IC50 (mean ± SD)",440 ± 40 nM
same,IC50,"HBL-100/Dox; HBL-100, 72 h, read-out: IC50 Values (Mean ± SD)",29600 ± 900 nM
same,IC50,"HBL-100/Dox; HBL-100, read-out: IC50 (mean ± SD)",29600 ± 940 nM
same,effect on cell cycle progression,HBL-100/Dox cells [5],induced the S phase arrest
same,Dead cells,HBL-100 cells [6],1.80±0.31%
same,Early apoptotic cells,HBL-100 cells [6],12.35 ± 0.42%
same,Late apoptotic cells,HBL-100 cells [6],1.93±0.29%
same,Viable cells,HBL-100 cells [6],83.89±0.82%
same,number of cells with nuclear morphology changes,HBL-100/Dox cells [7],9.9%
same,IC50,"RD TE32; RD TE32, MTT, 72 h of treatment, read-out: IC50 Values (Mean ± SD)",1300 ± 100 nM
same,IC50,"RD TE32; Table S1, RD TE32, read-out: IC50 (mean ± SD)",1270 ± 30 nM
same,IC50,PC-3,12600 ± 200 nM
same,IC50,"HBL-100; HBL-100, MTT, 72 h of treatment, read-out: IC50 Values (Mean ± SD)",400 ± 100 nM
same,IC50,"HBL-100; Table S1, HBL-100, read-out: IC50 (mean ± SD)",350 ± 30 nM
